# Experimental data reported in patent US6479435B1, “Diaryl ethers and processes for their preparation and herbicidal and desiccant compositions containing them” (ISK Americas Incorporated, priority 1997, dated 2002).
# What was measured:
# Type in all cases: in vivo
# [1] = test system: Johnsongrass (Sorghum halepense, SORHA); experiment: Pre-emerge greenhouse herbicide test, phytotoxicity rating; details: Sorghum halepense, pre-emergence, 336 h, 14 days after application, rating scale 0-100; for pest or weed control at 125 g/ha: Rate 125 g al/ha; for pest or weed control at 500 g/ha: Rate 500 g al/ha
# Method in brief: (§1)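 Seeds sown in sandy loam mix one day before track-sprayer application of compounds in acetone at 125–1000 g ai/ha (187 l/ha), then surface-watered to incorporate and bottom-watered. Visual rating 14 days after application on a 0–100 scale (0 = no damage, 100 = all plants dead).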
# [2] = test system: barnyardgrass (Echinochloa crusgalli, ECHCG); experiment: as above; details: Echinochloa crus-galli, pre-emergence, 336 h, 14 days after application, rating scale 0-100; for pest or weed control at 125 g/ha: Rate 125 g al/ha; for pest or weed control at 500 g/ha: Rate 500 g al/ha
# Method in brief: as §1
# [3] = test system: sicklepod (Cassia obtusifolia, CASOB); experiment: as above; details: Senna obtusifolia, pre-emergence, 336 h, 14 days after application, rating scale 0-100; for pest or weed control at 125 g/ha: Rate 125 g al/ha; for pest or weed control at 500 g/ha: Rate 500 g al/ha
# Method in brief: as §1
# [4] = test system: lambsquarters (Chenopodium album, CHEAL); experiment: as above; details: Chenopodium album, pre-emergence, 336 h, 14 days after application, rating scale 0-100; for pest or weed control at 125 g/ha: Rate 125 g al/ha; for pest or weed control at 500 g/ha: Rate 500 g al/ha
# Method in brief: as §1
# [5] = test system: redroot pigweed (Amaranthus retroflexus, AMARE); experiment: as above; details: Amaranthus retroflexus, pre-emergence, 336 h, 14 days after application, rating scale 0-100; for pest or weed control at 125 g/ha: Rate 125 g al/ha; for pest or weed control at 500 g/ha: Rate 500 g al/ha
# Method in brief: as §1
# [6] = test system: green foxtail (Setaria viridis, SETVI); experiment: as above; details: Setaria viridis, pre-emergence, 336 h, 14 days after application, rating scale 0-100; for pest or weed control at 125 g/ha: Rate 125 g al/ha; for pest or weed control at 500 g/ha: Rate 500 g al/ha
# Method in brief: as §1
# [7] = test system: velvetleaf (Abutilon theophrasti, ABUTH); experiment: Post-emerge greenhouse herbicide test, phytotoxicity rating; details: Abutilon theophrasti, post-emergence, 336 h, 14 days after application, scale 0-100; for pest or weed control at 63 g/ha: rate 63 g ai/ha; for pest or weed control at 500 g/ha: rate 500 g ai/ha
# Method in brief: (§2)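 Compounds in acetone with 0.25% v/v non-ionic surfactant were track-sprayed at 187 l/ha over plants at the 2-3 leaf stage, at 63 to 1000 g ai/ha. Pots were bottom-watered. Injury was scored visually 14 days later on a 0-100 scale, where 0 is no damage and 100 is complete plant death.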
# [8] = test system: Johnsongrass (Sorghum halepense, SORHA); experiment: as above; details: Sorghum halepense, post-emergence, 336 h, 14 days after application, scale 0-100; for pest or weed control at 63 g/ha: rate 63 g ai/ha; for pest or weed control at 500 g/ha: rate 500 g ai/ha
# Method in brief: as §2
# [9] = test system: large crabgrass (Digitaria sanguinalis, DIGSA); experiment: as above; details: Digitaria sanguinalis, post-emergence, 336 h, 14 days after application, scale 0-100; for pest or weed control at 63 g/ha: rate 63 g ai/ha; for pest or weed control at 500 g/ha: rate 500 g ai/ha
# Method in brief: as §2
# [10] = test system: barnyardgrass (Echinochloa crusgalli, ECHCG); experiment: as above; details: Echinochloa crus-galli, post-emergence, 336 h, 14 days after application, scale 0-100; for pest or weed control at 63 g/ha: rate 63 g ai/ha; for pest or weed control at 500 g/ha: rate 500 g ai/ha
# Method in brief: as §2
# [11] = test system: sicklepod (Cassia obtusifolia, CASOB); experiment: as above; details: Senna obtusifolia, post-emergence, 336 h, 14 days after application, scale 0-100; for pest or weed control at 63 g/ha: rate 63 g ai/ha; for pest or weed control at 500 g/ha: rate 500 g ai/ha
# Method in brief: as §2
# [12] = test system: lambsquarters (Chenopodium album, CHEAL); experiment: as above; details: Chenopodium album, post-emergence, 336 h, 14 days after application, scale 0-100; for pest or weed control at 63 g/ha: rate 63 g ai/ha; for pest or weed control at 500 g/ha: rate 500 g ai/ha
# Method in brief: as §2
# [13] = test system: ivyleaf morningglory (Ipomoea hederacea, IPOHE); experiment: as above; details: Ipomoea, post-emergence, 336 h, 14 days after application, scale 0-100; for pest or weed control at 63 g/ha: rate 63 g ai/ha; for pest or weed control at 500 g/ha: rate 500 g ai/ha
# Method in brief: as §2
# [14] = test system: redroot pigweed (Amaranthus retroflexus, AMARE); experiment: as above; details: Amaranthus retroflexus, post-emergence, 336 h, 14 days after application, scale 0-100; for pest or weed control at 63 g/ha: rate 63 g ai/ha; for pest or weed control at 500 g/ha: rate 500 g ai/ha
# Method in brief: as §2
# [15] = test system: green foxtail (Setaria viridis, SETVI); experiment: as above; details: Setaria viridis, post-emergence, 336 h, 14 days after application, scale 0-100; for pest or weed control at 63 g/ha: rate 63 g ai/ha; for pest or weed control at 500 g/ha: rate 500 g ai/ha
# Method in brief: as §2
SMILES,pest or weed control at 125 g/ha [1],pest or weed control at 500 g/ha [1],pest or weed control at 125 g/ha [2],pest or weed control at 500 g/ha [2],pest or weed control at 125 g/ha [3],pest or weed control at 500 g/ha [3],pest or weed control at 125 g/ha [4],pest or weed control at 500 g/ha [4],pest or weed control at 125 g/ha [5],pest or weed control at 500 g/ha [5],pest or weed control at 125 g/ha [6],pest or weed control at 500 g/ha [6],pest or weed control at 63 g/ha [7],pest or weed control at 500 g/ha [7],pest or weed control at 63 g/ha [8],pest or weed control at 500 g/ha [8],pest or weed control at 63 g/ha [9],pest or weed control at 500 g/ha [9],pest or weed control at 63 g/ha [10],pest or weed control at 500 g/ha [10],further results
"Nn1c(C(F)(F)F)cc(=O)n(-c2cc(Oc3ccccc3[N+](=O)[O-])c(Cl)cc2F)c1=O [Compound 9-21, 1-amino-3-[4-chloro-2-fluoro-5-(2-nitrophenoxy)phenyl]-6-trifluoromethyl-1,2,3,4-tetrahydropyrimidine-2,4-dione]",90%,100%,90%,100%,30%,90%,100%,100%,100%,100%,100%,100%,100%,100%,60%,90%,30%,90%,70%,100%,pest or weed control at 63 g/ha [11]: 100%; pest or weed control at 500 g/ha [11]: 100%; pest or weed control at 63 g/ha [12]: 100%; pest or weed control at 500 g/ha [12]: 100%; pest or weed control at 63 g/ha [13]: 100%; pest or weed control at 500 g/ha [13]: 100%; pest or weed control at 63 g/ha [14]: 100%; pest or weed control at 500 g/ha [14]: 100%; pest or weed control at 63 g/ha [15]: 90%; pest or weed control at 500 g/ha [15]: 100%
"Nn1c(C(F)(F)F)cc(=O)n(-c2cc(Oc3ccc([N+](=O)[O-])cc3C(F)(F)F)c(Cl)cc2F)c1=O [Compound 9-22, 1-Amino-3-[4-chloro-2-fluoro-5-(4-nitro-2-trifluoromethylphenoxy)phenyl]-6-trifluoromethyl-1,2,3,4-tetrahydropyrimidine-2,4-dione]",50%,95%,50%,90%,30%,80%,100%,100%,100%,100%,90%,100%,100%,100%,0%,80%,10%,50%,20%,90%,pest or weed control at 63 g/ha [11]: 30%; pest or weed control at 500 g/ha [11]: 70%; pest or weed control at 63 g/ha [12]: 40%; pest or weed control at 500 g/ha [12]: 100%; pest or weed control at 63 g/ha [13]: 100%; pest or weed control at 500 g/ha [13]: 100%; pest or weed control at 63 g/ha [14]: 100%; pest or weed control at 500 g/ha [14]: 100%; pest or weed control at 63 g/ha [15]: 10%; pest or weed control at 500 g/ha [15]: 80%
"Nn1c(C(F)(F)F)cc(=O)n(-c2cc(Oc3cc([N+](=O)[O-])cc(C(F)(F)F)c3)c(Cl)cc2F)c1=O [Compound 9-23, 1-Amino-3-[4-chloro-2-fluoro-5-(3-nitro-5-trifluoromethylphenoxy)phenyl]-6-trifluoromethyl-1,2,3,4-tetrahydropyrimidine-2,4-dione]",10%,70%,10%,70%,0%,10%,95%,100%,100%,100%,40%,100%,45%,90%,0%,30%,0%,0%,0%,50%,pest or weed control at 63 g/ha [11]: 10%; pest or weed control at 500 g/ha [11]: 30%; pest or weed control at 63 g/ha [12]: 70%; pest or weed control at 500 g/ha [12]: 95%; pest or weed control at 63 g/ha [13]: 50%; pest or weed control at 500 g/ha [13]: 75%; pest or weed control at 63 g/ha [14]: 85%; pest or weed control at 500 g/ha [14]: 85%; pest or weed control at 63 g/ha [15]: 0%; pest or weed control at 500 g/ha [15]: 10%
"Nn1c(C(F)(F)F)cc(=O)n(-c2cc(Oc3ccccc3C(F)(F)F)c(Cl)cc2F)c1=O [Compound 9-24, 1-amino-3-[4-chloro-2-fluoro-5-(2-trifluoromethylphenoxy)phenyl]-6-trifluoromethyl-1,2,3,4-tetrahydropyrimidine-2,4-dione]",30%,90%,60%,70%,30%,0%,100%,100%,95%,100%,100%,100%,100%,100%,30%,70%,40%,75%,30%,90%,pest or weed control at 63 g/ha [11]: 30%; pest or weed control at 500 g/ha [11]: 80%; pest or weed control at 63 g/ha [12]: 100%; pest or weed control at 500 g/ha [12]: 100%; pest or weed control at 63 g/ha [13]: 100%; pest or weed control at 500 g/ha [13]: 100%; pest or weed control at 63 g/ha [14]: 100%; pest or weed control at 500 g/ha [14]: 100%; pest or weed control at 63 g/ha [15]: 70%; pest or weed control at 500 g/ha [15]: 95%
